In article PMC12147714 (FEMS Microbiology Letters, 2025):

Columns and labels:
Format in all cases: cell-based, Pseudomonas aeruginosa
[1] = system: clinical isolate D9 (IMP-7); assay: microbe, parasite or virus in culture
Experimental: (§1) Thirty-two carbapenem-resistant clinical P. aeruginosa, with previously defined carbapenem-resistance mechanisms, were included.
(§2) The fractional inhibitory concentration index (FICI) was calculated and interpreted as follows: the MIC of drug A in combination/the MIC of drug A alone + the MIC of drug B in combination/the MIC drug B alone. FICI ≤ 0.5 = synergy; 0.5 < FICI ≤ 1 = additive; FICI 1 < FICI < 2 = indifference, and FICI ≥ 2 = antagonism. All susceptibility testing/checkerboard assays were performed in triplicate.

[2] = system: clinical isolate D29 (KPC-2); assay: microbe, parasite or virus in culture
Experimental: as §1, §2

[3] = system: clinical isolate D20 (NDM-1); assay: microbe, parasite or virus in culture
Experimental: as §1, §2

[4] = system: clinical isolate D5 (IMP-1); assay: microbe, parasite or virus in culture
Experimental: as §1, §2

[5] = system: clinical isolate D26 (VIM-4); assay: microbe, parasite or virus in culture
Experimental: as §1, §2

[6] = system: clinical isolate D18 (IMP-18); assay: microbe, parasite or virus in culture
Experimental: as §1, §2

[7] = system: clinical isolate D17 (IMP-13); assay: microbe, parasite or virus in culture
Experimental: as §1, §2

[8] = system: clinical isolate D25 (VIM-4); assay: microbe, parasite or virus in culture
Experimental: as §1, §2

[9] = system: clinical isolate D21 (NDM-1); assay: microbe, parasite or virus in culture
Experimental: as §1, §2

[10] = system: clinical isolate D27 (VIM-36); assay: microbe, parasite or virus in culture
Experimental: as §1, §2

[11] = system: clinical isolate D23 (VIM-2); assay: microbe, parasite or virus in culture
Experimental: as §1, §2

[12] = system: clinical isolate D24 (VIM-2); assay: microbe, parasite or virus in culture
Experimental: as §1, §2

[13] = system: clinical isolate D10 (IMP-7); assay: microbe, parasite or virus in culture
Experimental: as §1, §2

[14] = system: clinical isolate D13 (IMP-7); assay: microbe, parasite or virus in culture
Experimental: as §1, §2

[15] = system: clinical isolate D31 (Permeability); assay: microbe, parasite or virus in culture
Experimental: as §1, §2

[16] = system: clinical isolate D32 (Permeability); assay: microbe, parasite or virus in culture
Experimental: as §1, §2

[17] = system: clinical isolate D30 (KPC-2); assay: microbe, parasite or virus in culture
Experimental: as §1, §2

[18] = system: clinical isolate D15 (IMP-13); assay: microbe, parasite or virus in culture
Experimental: as §1, §2

[19] = system: clinical isolate D12 (IMP-7); assay: microbe, parasite or virus in culture
Experimental: as §1, §2

[20] = system: clinical isolate D14 (IMP-10); assay: microbe, parasite or virus in culture
Experimental: as §1, §2

[21] = system: clinical isolate D8 (IMP-4); assay: microbe, parasite or virus in culture
Experimental: as §1, §2

[22] = system: clinical isolate D3 (IMP-1); assay: microbe, parasite or virus in culture
Experimental: as §1, §2

[23] = system: clinical isolate D22 (NDM-1, VIM-2); assay: microbe, parasite or virus in culture
Experimental: as §1, §2

[24] = system: clinical isolate D11 (IMP-7); assay: microbe, parasite or virus in culture
Experimental: as §1, §2

[25] = system: clinical isolate D16 (IMP-13); assay: microbe, parasite or virus in culture
Experimental: as §1, §2

[26] = system: clinical isolate D4 (IMP-1); assay: microbe, parasite or virus in culture
Experimental: as §1, §2

[27] = system: clinical isolate D19 (IMP-4, OXA-181, VIM-5); assay: microbe, parasite or virus in culture
Experimental: as §1, §2

[28] = system: clinical isolate D6 (IMP-1); assay: microbe, parasite or virus in culture
Experimental: as §1, §2

[29] = system: clinical isolate D7 (IMP-1); assay: microbe, parasite or virus in culture
Experimental: as §1, §2

[30] = system: clinical isolate D2 (IMP-1); assay: microbe, parasite or virus in culture
Experimental: as §1, §2

[31] = system: clinical isolate D1 (IMP-1); assay: microbe, parasite or virus in culture
Experimental: as §1, §2

[32] = system: clinical isolate D28 (GES-5, OXA-181); assay: microbe, parasite or virus in culture
Experimental: as §1, §2

[33] = system: PAO1 and PAO1 TnoprD producing one of eight different carbapenemases; assay: MIC and checkerboard, isogenic strains as a group
From the text: Pseudomonas aeruginosa isolate, PAO1, was used alongside its isogenic counterpart, PAO1 TnoprD, which lacks a functional OprD porin (Held et al. [2012]). β-lactamases, blaIMP-1, blaIMP-10, blaIMP-13, blaNDM-1, blaSPM-1, blaVIM-1, blaVIM-2, and blaKPC-2, had previously been cloned into the pUCP24 shuttle vector (Bouvier et al. [2025]), and were transformed by electroporation into both PAO1 and PAO1 TnoprD.
as §2, with “. MICs of DMSA, CAZ, FEP and checkerboards for the combinations, CAZ/DMSA and FEP/DMSA, were performed for all clinical isolates. All susceptibility testing results were interpreted according to CLSI guidelines (CLSI [2023]). The” for “The”

CC(C)(O/N=C(\C(=O)N[C@@H]1C(=O)N2C(C(=O)[O-])=C(C[n+]3ccccc3)CS[C@H]12)c1csc(N)n1)C(=O)O [CAZ, ceftazidime]
32 µg/mL: MIC ([8]; Pseudomonas aeruginosa) | MIC ([11]; Pseudomonas aeruginosa) | MIC ([12]; Pseudomonas aeruginosa)
16 µg/mL: MIC ([2]; Pseudomonas aeruginosa) | MIC ([16]; Pseudomonas aeruginosa) | MIC ([32]; Pseudomonas aeruginosa)
512 µg/mL: MIC ([4]; Pseudomonas aeruginosa) | MIC ([10]; Pseudomonas aeruginosa) | MIC ([13]; Pseudomonas aeruginosa) | MIC ([14]; Pseudomonas aeruginosa) | MIC ([18]; Pseudomonas aeruginosa) | MIC ([19]; Pseudomonas aeruginosa) | MIC ([22]; Pseudomonas aeruginosa) | MIC ([24]; Pseudomonas aeruginosa) | MIC ([25]; Pseudomonas aeruginosa) | MIC ([28]; Pseudomonas aeruginosa)
64 µg/mL: MIC ([17]; Pseudomonas aeruginosa)
256 µg/mL: MIC ([1]; Pseudomonas aeruginosa) | MIC ([7]; Pseudomonas aeruginosa)
2050 µg/mL: MIC ([21]; Pseudomonas aeruginosa)
1020 µg/mL: MIC ([6]; Pseudomonas aeruginosa) | MIC ([20]; Pseudomonas aeruginosa) | MIC ([26]; Pseudomonas aeruginosa) | MIC ([29]; Pseudomonas aeruginosa) | MIC ([30]; Pseudomonas aeruginosa) | MIC ([31]; Pseudomonas aeruginosa)
128 µg/mL: MIC ([5]; Pseudomonas aeruginosa) | MIC ([15]; Pseudomonas aeruginosa)
synergy (FICI ≤ 0.5 = synergy): interaction with DMSA as indicated by the FICIs ([33]; SPM-1 and VIM-1 strains, DMSA 200 mg/l) | interaction with DMSA as indicated by the FICIs ([33]; strains producing IMP-1, IMP-10 or IMP-13, with and without functional OprD, all three DMSA concentrations (100, 200, 300 mg/l))
4100 µg/mL: MIC ([3]; Pseudomonas aeruginosa) | MIC ([9]; Pseudomonas aeruginosa) | MIC ([23]; Pseudomonas aeruginosa) | MIC ([27]; Pseudomonas aeruginosa)

O=C(O)[C@@H](S)[C@@H](S)C(=O)O [DMSA, meso-dimercaptosuccinic acid]
1000 µg/mL: MIC ([15]; isolate D31, drug alone)
600 µg/mL: MIC ([6]; isolate D18, drug alone) | MIC ([8]; isolate D25, drug alone) | MIC ([12]; isolate D24, drug alone) | MIC ([13]; isolate D10, drug alone) | MIC ([19]; isolate D12, drug alone) | MIC ([24]; isolate D11, drug alone) | MIC ([25]; isolate D16, drug alone) | MIC ([27]; isolate D19, drug alone) | MIC ([30]; isolate D2, drug alone) | MIC ([31]; isolate D1, drug alone) | MIC ([32]; isolate D28, drug alone)
800 µg/mL: MIC ([2]; isolate D29, drug alone) | MIC ([4]; isolate D5, drug alone) | MIC ([10]; isolate D27, drug alone) | MIC ([17]; isolate D30, drug alone) | MIC ([28]; isolate D6, drug alone) | MIC ([29]; isolate D7, drug alone)
900 µg/mL: MIC ([20]; isolate D14, drug alone) | MIC ([26]; isolate D4, drug alone) | MIC to DMSA alone ([33]; all isogenic strains)
500 µg/mL: MIC ([18]; isolate D15, drug alone) | MIC ([21]; isolate D8, drug alone)
700 µg/mL: MIC ([1]; isolate D9, drug alone) | MIC ([3]; isolate D20, drug alone) | MIC ([5]; isolate D26, drug alone) | MIC ([7]; isolate D17, drug alone) | MIC ([9]; isolate D21, drug alone) | MIC ([11]; isolate D23, drug alone) | MIC ([14]; isolate D13, drug alone) | MIC ([16]; isolate D32, drug alone) | MIC ([22]; isolate D3, drug alone) | MIC ([23]; isolate D22, drug alone)
